Data as given in the NIST ThermoML archive (doi:10.1021/acs.jced.7b00106).

Details: Liquid, Hot wire method

FC(F)(F)/C=C/Cl [(E)-1-chloro-3,3,3-trifluoroprop-1-ene]
Details | thermal conductivity [W/m/K]
244.27 K, 20428 kPa | 0.1068
261.5 K, 276 kPa | 0.09433
261.52 K, 5038 kPa | 0.09629
261.54 K, 10280 kPa | 0.09846
261.55 K, 22296 kPa | 0.1036
261.56 K, 15956 kPa | 0.1002
261.58 K, 270 kPa | 0.09415
261.61 K, 5056 kPa | 0.09622
261.63 K, 10283 kPa | 0.09831
261.64 K, 22292 kPa | 0.1023
261.65 K, 15950 kPa | 0.1003
261.91 K, 36411 kPa | 0.1079
261.91 K, 42842 kPa | 0.1093
261.93 K, 282 kPa | 0.09438
261.93 K, 5041 kPa | 0.09641
261.94 K, 29216 kPa | 0.1051
261.95 K, 22290 kPa | 0.103
261.96 K, 10273 kPa | 0.09851
261.96 K, 15950 kPa | 0.1005
261.97 K, 65297 kPa | 0.1155
262 K, 59186 kPa | 0.115
262.01 K, 36414 kPa | 0.1074
262.01 K, 42847 kPa | 0.1089
262.02 K, 51140 kPa | 0.1116
262.04 K, 270 kPa | 0.094
262.05 K, 29220 kPa | 0.105
262.06 K, 5047 kPa | 0.09593
262.06 K, 10278 kPa | 0.09816
262.06 K, 22290 kPa | 0.1024
262.06 K, 65280 kPa | 0.115
262.08 K, 15930 kPa | 0.1003
262.1 K, 59178 kPa | 0.1128
262.12 K, 51139 kPa | 0.1114
262.33 K, 36413 kPa | 0.1071
262.33 K, 42846 kPa | 0.1091
262.37 K, 65275 kPa | 0.1153
262.38 K, 29224 kPa | 0.1054
262.4 K, 275 kPa | 0.09425
262.4 K, 22288 kPa | 0.1026
262.41 K, 59182 kPa | 0.1141
262.42 K, 5040 kPa | 0.09609
262.42 K, 10267 kPa | 0.09829
262.43 K, 51128 kPa | 0.1115
262.44 K, 15943 kPa | 0.1005
262.46 K, 42848 kPa | 0.1091
262.47 K, 36410 kPa | 0.107
262.5 K, 65252 kPa | 0.115
262.51 K, 29222 kPa | 0.1049
262.53 K, 59166 kPa | 0.1136
262.55 K, 22288 kPa | 0.1025
262.56 K, 273 kPa | 0.09391
262.56 K, 51133 kPa | 0.1113
262.57 K, 5039 kPa | 0.09583
262.57 K, 10288 kPa | 0.09813
262.57 K, 15931 kPa | 0.09995
262.8 K, 42854 kPa | 0.1091
262.81 K, 36411 kPa | 0.107
262.81 K, 65229 kPa | 0.1152
262.86 K, 29224 kPa | 0.105
262.86 K, 59156 kPa | 0.1141
262.89 K, 51121 kPa | 0.1116
262.9 K, 22284 kPa | 0.1027
262.94 K, 280 kPa | 0.094
262.94 K, 10264 kPa | 0.09833
262.94 K, 15933 kPa | 0.1003
262.95 K, 5058 kPa | 0.09606
262.95 K, 42854 kPa | 0.1089
262.96 K, 65209 kPa | 0.115
262.98 K, 36413 kPa | 0.1068
263.01 K, 59151 kPa | 0.1135
263.03 K, 29224 kPa | 0.1045
263.05 K, 51114 kPa | 0.1112
263.06 K, 22282 kPa | 0.1023
